Results published in US11780843B2, “Compounds active towards nuclear receptors” (NUEVOLUTION A/S, priority 2020, dated 2023).
pIC50: −log10 of the molar value. Read-outs that look alike come from different tables or passages of the source.

Experiments:
[1] = molecular target: T1, RORγ ligand-binding domain (Homo sapiens, UniProt P51449); test: RORγ Reporter Assay (Gal4); assay type: cell-based
T1 construct: Gal4 (galactose-responsive transcription factor); expressed in transfected cells; host or cells: HEK293, transient co-transfection
T1 sequence (P51449 269-508 limits assumed): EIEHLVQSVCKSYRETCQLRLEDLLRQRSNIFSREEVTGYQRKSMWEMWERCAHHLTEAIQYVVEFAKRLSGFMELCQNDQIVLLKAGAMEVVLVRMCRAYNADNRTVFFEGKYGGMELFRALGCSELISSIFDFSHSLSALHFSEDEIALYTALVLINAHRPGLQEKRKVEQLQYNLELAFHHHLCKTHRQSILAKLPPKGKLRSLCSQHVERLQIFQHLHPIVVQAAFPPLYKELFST
Method: The HEK293 cell line is co-transfected transiently with two plasmids, one with the RORγ ligand-binding domain fused to galactose-responsive transcription factor (Ga14), and the other with the luciferase reporter gene and Gal binding sites (UAS). This construction allows to determine the RORT activity in a cellular system through the measurement of luminescence.
A suspension of RORγ reporter cells was dispensed into plates and cultured 2 h at 37° C. and 5% CO2. Media formulation consisted in DMEM/F-12 medium (Gibco) supplemented with 10% heat inactivated FBS (Sigma-Aldrich), non-essential aminoacids (Sigma-Aldrich), 2 mM Glutamax (Gibco) and 100 U/mL penicillin (Sigma-Aldrich). Dose-response curves with compounds were prepared in 100% DMSO and further diluted 100-fold in culture medium. Compound solutions were added to the plate containing cells (final DMSO concentration of 0.1%) and incubated for 24 h at 37° C. and 5% CO2. Luciferase detection reagent was added to each well, and relative light units (RLUs) were quantified from each assay well using a plate reading luminometer.
Values of average RLU±S.D. were computed for all treatment sets, followed by the calculations of percent-reduction of RORT activity in response to respective test compound. The following formula was used: activity=100*[1−[[…]] where the theoretical minimum reduction (0% reduction). […] These calculations were performed in excel-fit software using X-204 model curve.

[2] = system: IL-17A secretion in activated PBMCs; test: IL-17A secretion in activated PBMCs; assay type: cell-based; details: Homo sapiens, PBMC, 48 h, human PBMCs stimulated with CD3/CD28 Dynabeads for 48 h, absolute IC50
Description: Heparin-treated whole blood from healthy human volunteers was supplied from Hospital de Sant Pau (Barcelona) under the approval of the local ethical review board for human studies (Hospital de Sant Pau, Barcelona, Spain). Human peripheral blood mononuclear cells (PBMCs) were isolated from healthy human volunteers by density gradient centrifugation using the Ficoll-Paque (GE Healthcare). PBMCs were suspended in cell culture medium which consisted on RPMI 1640 medium (Sigma-Aldrich) containing 10% heat inactivated fetal bovine serum (Sigma-Aldrich), 2 mM L-Glutamine (Gibco), 20 mM Hepes (Gibco) and 100 U/mL penicillin (Sigma-Aldrich). Cells were seeded in 384-well plate (DiscoverX), at 40,000 cells per well and cultured 2 h at 37° C. and 5% CO2.
Dose-response curves with compounds were prepared using a 5-fold serial dilution (10 concentrations) in 100% DMSO and further diluted 100-fold in culture medium. Compound solutions (5 μL) were added to the plate containing cells (final DMSO concentration of 0.1%) and incubated for 30 min. Then, cells were stimulated with CD3/CD28 Dynabeads (ThermoFisher, at a bead-to-cell ratio of 1:1) for 48 h at 37° C. and 5% CO2.
IL-17A levels in supernatant were determined by immunoassay using hIL17A QBeads (Intellicyt) and by fluorescence analysis in iQue flow cytometer following the manufacturer's instructions. Inhibition of IL-17A secretion was calculated using the following formula: inhibition=100*[1−[(x−mean basal condition)/(mean top condition—mean basal condition)]]. Activated DMSO-treated cells were used as top condition and activated GNE09461 (10 μM)-treated cells as basal condition.

[3] = HEK293 cells, luciferase reporter, 24 h incubation, absolute IC50, read-out: IC50

pIC50 [1, 3]	pIC50 ([1]; stated as a bound only (Tables 5 a, 6, 7), read-out: Gal4 assay IC50)	SMILES	pIC50 [2]
8.28	–	CN(Cc1ccc(C(F)(F)F)cc1)c1ncnc2c1c(F)cn2C[C@@H]1CCN(CC(N)=O)C[C@H]1O (racemic) [Example P6-12, rac-2-((3R,4R)-4-((5-fluoro-4-(methyl(4-(trifluoromethyl)benzyl)amino)-7H-pyrrolo[2,3-d]pyrimidin-7-yl)methyl)-3-hydroxypiperidin-1-yl)acetamide]	7.52
9.05	–	NC(=O)CN1CC[C@@H](Cn2ccc3c(N(Cc4ccc(C(F)(F)F)cc4)C4CC4)ncnc32)[C@H](O)C1 (racemic) [Example P6-13, rac-2-((3R,4R)-4-((4-(cyclopropyl(4-(trifluoromethyl)benzyl)amino)-7H-pyrrolo[2,3-d]pyrimidin-7-yl)methyl)-3-hydroxypiperidin-1-yl)acetamide]	8.82
9.00	–	NC(=O)CN1CC[C@@H](Cn2cc(F)c3c(N(Cc4ccc(C(F)(F)F)cc4)C4CC4)ncnc32)[C@H](O)C1 (racemic) [Example P6-14, rac-2-((3R,4R)-4-((4-(cyclopropyl(4-(trifluoromethyl)benzyl)amino)-5-fluoro-7H-pyrrolo[2,3-d]pyrimidin-7-yl)methyl)-3-hydroxypiperidin-1-yl)acetamide]	8.66
8.00	–	NC(=O)CN1CC[C@@H](Cn2cc(F)c3c(N(Cc4ccc(C(F)(F)F)nc4)C4CC4)ncnc32)[C@H](O)C1 (racemic) [Example P6-15, rac-2-((3R,4R)-4-((4-(cyclopropyl((6-(trifluoromethyl)pyridin-3-yl)methyl)amino)-5-fluoro-7H-pyrrolo[2,3-d]pyrimidin-7-yl)methyl)-3-hydroxypiperidin-1-yl)acetamide]	7.74
8.30	–	NC(=O)CN1CC[C@@H](Cn2ccc3c(N(Cc4ccc(C(F)(F)F)nc4)C4CC4)ncnc32)[C@H](O)C1 (racemic) [Example P6-16, rac-2-((3R,4R)-4-((4-(cyclopropyl((6-(trifluoromethyl)pyridin-3-yl)methyl)amino)-7H-pyrrolo[2,3-d]pyrimidin-7-yl)methyl)-3-hydroxypiperidin-1-yl)acetamide]	7.77
8.34	–	NC(=O)CN1CC[C@@H](Cn2cc(F)c3c(N(Cc4ccc(C(F)(F)F)cn4)C4CC4)ncnc32)[C@H](O)C1 (racemic) [Example P6-18, rac-2-((3R,4R)-4-((4-(cyclopropyl((5-(trifluoromethyl)pyridin-2-yl)methyl)amino)-5-fluoro-7H-pyrrolo[2,3-d]pyrimidin-7-yl)methyl)-3-hydroxypiperidin-1-yl)acetamide]	7.85
8.01	–	CC(C)N(Cc1ccc(C(F)(F)F)cc1)c1ncnc2c1c(F)cn2C[C@@H]1CCN(CC(N)=O)C[C@H]1O (racemic) [Example P6-19, rac-2-((3R,4R)-4-((5-fluoro-4-(isopropyl(4-(trifluoromethyl)benzyl)amino)-7H-pyrrolo[2,3-d]pyrimidin-7-yl)methyl)-3-hydroxypiperidin-1-yl)acetamide]	7.82
8.18	–	CCN(Cc1ccc(C(F)(F)F)cc1)c1ncnc2c1c(F)cn2C[C@@H]1CCN(CC(N)=O)C[C@H]1O (racemic) [Example P6-21, rac-2-((3R,4R)-4-((4-(ethyl(4-(trifluoromethyl)benzyl)amino)-5-fluoro-7H-pyrrolo[2,3-d]pyrimidin-7-yl)methyl)-3-hydroxypiperidin-1-yl)acetamide]	7.96
8.28	–	NC(=O)CN1CC[C@@H](Cn2ccc3c(N(Cc4ccc(C(F)(F)F)cn4)C4CC4)ncnc32)[C@H](O)C1 (racemic) [Example P6-23, rac-2-((3R,4R)-4-((4-(cyclopropyl((5-(trifluoromethyl)pyridin-2-yl)methyl)amino)-7H-pyrrolo[2,3-d]pyrimidin-7-yl)methyl)-3-hydroxypiperidin-1-yl)acetamide]	7.92
8.34	–	CCN(Cc1ccc(C(F)(F)F)cc1)c1ncnc2c1ccn2C[C@@H]1CCN(CC(N)=O)C[C@H]1O (racemic) [Example P6-24, rac-2-((3R,4R)-4-((4-(ethyl(4-(trifluoromethyl)benzyl)amino)-7H-pyrrolo[2,3-d]pyrimidin-7-yl)methyl)-3-hydroxypiperidin-1-yl)acetamide]	7.66
7.82	–	CC(C)N(Cc1ccc(C(F)(F)F)cc1)c1ncnc2c1ccn2C[C@@H]1CCN(CC(N)=O)C[C@H]1O (racemic) [Example P6-25, rac-2-((3R,4R)-3-hydroxy-4-((4-(isopropyl(4-(trifluoromethyl)benzyl)amino)-7H-pyrrolo[2,3-d]pyrimidin-7-yl)methyl)piperidin-1-yl)acetamide]	7.46
8.70	–	NC(=O)C(CO)N1CC[C@@H](Cn2ccc3c(N(Cc4ccc(C(F)(F)F)cc4)C4CC4)ncnc32)[C@H](O)C1 (mixture of isomers) [Example P6-37, rac-2-((3R,4R)-4-((4-(Cyclopropyl(4-(trifluoromethyl)benzyl)amino)-7H-pyrrolo[2,3-d]pyrimidin-7-yl)methyl)-3-hydroxypiperidin-1-yl)-3-hydroxypropanamide]	8.15
8.29	–	NC(=O)CN1CC[C@@H](Cn2cnc3c(N(Cc4ccc(C(F)(F)F)cc4)C4CC4)ncnc32)[C@H](O)C1 (relative stereo) [P6-26″, rel-2-((3R,4R)-4-((6-(cyclopropyl(4-(trifluoromethyl)benzyl)amino)-9H-purin-9-yl)methyl)-3-hydroxypiperidin-1-yl)acetamide]	7.68
7.92	–	CCN(Cc1ccc(C(F)(F)F)cn1)c1ncnc2c1ccn2C[C@@H]1CCN(CC(N)=O)C[C@H]1O (relative stereo) [P6-27″, rel-2-((3R,4R)-4-((4-(ethyl((5-(trifluoromethyl)pyridin-2-yl)methyl)amino)-7H-pyrrolo[2,3-d]pyrimidin-7-yl)methyl)-3-hydroxypiperidin-1-yl)acetamide]	7.15
6.55	–	N#Cc1cn(CC2CCN(CC(N)=O)CC2)c2ncnc(N(Cc3ccc(C(F)(F)F)cc3)C3CC3)c12 [Example P6-07, 2-(4-((5-cyano-4-(cyclopropyl(4-(trifluoromethyl)benzyl)amino)-7H-pyrrolo[2,3-d]pyrimidin-7-yl)methyl)piperidin-1-yl)acetamide]	–
6.64	–	CC(C(N)=O)N1CCC(Cn2cnc3c(N(Cc4ccc(C(F)(F)F)cc4)C4CC4)ncnc32)CC1 (stereo not shown) [Example P6-08, 2-(4-((6-(cyclopropyl(4-(trifluoromethyl)benzyl)amino)-9H-purin-9-yl)methyl)piperidin-1-yl)propanamide]	–
< 6.00	–	CC(C)(C(N)=O)N1CCC(Cn2cnc3c(N(Cc4ccc(C(F)(F)F)cc4)C4CC4)ncnc32)CC1 [Example P6-09, 2-(4-((6-(cyclopropyl(4-(trifluoromethyl)benzyl)amino)-9H-purin-9-yl)methyl)piperidin-1-yl)-2-methylpropanamide]	–
7.03	–	NC(=O)CN1CCC(Cn2cc(F)c3c(N(Cc4ccc(C(F)(F)F)nc4)C4CC4)ncnc32)CC1 [Example P6-10, 2-(4-((4-(cyclopropyl((6-(trifluoromethyl)pyridin-3-yl)methyl)amino)-5-fluoro-7H-pyrrolo[2,3-d]pyrimidin-7-yl)methyl)piperidin-1-yl)acetamide]	–
6.48	> 6.30	NC(=O)CN1CCC(Cn2ccc3c(N4CCOC[C@@H]4c4ccc(C(F)(F)F)cn4)ncnc32)CC1 [Example Q4-2, (S)-2-(4-((4-(3-(5-(trifluoromethyl)pyridin-2-yl)morpholino)-7H-pyrrolo[2,3-d]pyrimidin-7-yl)methyl)piperidin-1-yl)acetamide]	–
